# Earlier results, collected in patent US20160289773A1 (priority 2013, published 2016).
# Several values for one entry are separate records, joined by “and”; a condition that tells them apart may be missing. Equal values may be shown once.
# Legend:
# Haemonchus contortus [1] = settings: in vivo
# Haemonchus contortus [2] = settings: Zaire isolate
compound,measurement,setting,value
"c1ccc([C@H]2CN3CCSC3=N2)cc1 [Levamisole, levamisole]",Levamisole efficacy,Haemonchus contortus [1],100% and > 99%
same,levamisole susceptibility status of isolate,Haemonchus contortus [2],susceptible
